In patent publication US10688099B2, “Methods for modulating the amount of RNA transcripts” (PTC Therapeutics, Inc., priority 2013, dated 2020):

Experiments:
[1] = system: splice junctions in human transcripts, PNN 1-46 cells; experiment: RNA sequencing, splice-site (splice junction) analysis, Compound vs DMSO control; type: cell-based
Method: PNN 1-46 cells derived from a Type I SMA patient were treated with Compound 702 at 500 nM for 24 hours. RNA was purified with the RNeasy Mini Kit (Qiagen) for mRNA sequencing on HiSeq 2500 (Illumina Inc., San Diego, Calif.). The quality of the total RNA was assessed using UV spectrophotometry and agarose gel electrophoresis. Template DNA molecules suitable for cluster generation were prepared from 1 ug of total RNA samples using the TruSeq RNA Sample Preparation Kit v2 (Illumina Inc., San Diego, Calif.) according to the manufacturer's instructions. The size distribution of the libraries was estimated by electrophoresis on Agilent High Sensitivity Bioanalyzer microfluidic chips. The minimum and average sizes of the amplified libraries were determined to be >200 nucleotides and 300-340 nucleotides, respectively. Libraries were quantified using the KAPA Library Quantification Kit (KK4824, Kapa Biosystems, Boston, Mass.). The libraries were pooled at equimolar concentrations and diluted prior to loading onto the flow cell of the HiSeq 2500 (Illumina Inc., San Diego, Calif.) for both clustering and sequencing. The libraries were extended and bridge-amplified to create single sequence clusters using the TruSeq Rapid PE Cluster Kit—HS (Illumina Inc., San Diego, Calif.). Amplified clusters in the flow cell were then sequenced with 50-bp paired-end reads using the TruSeq Rapid SBS Kit—HS (Illumina Inc., San Diego, Calif.) in rapid run mode. Real time image analysis and base calling were performed on the HiSeq 2500 instrument using the HiSeq Sequencing Control Software (HCS). CASAVA software version 1.8 was used for de-multiplexing and production of FASTQ sequence files.
In order to estimate gene expression levels, paired-end RNAseq reads were subsequently mapped to RefSeq human transcripts (release 60) and the human genome (hg19) by using the short read aligner Bowtie2 (Langmead et al., 2012. Nature methods 9:357). The number of mapped reads for all transcript variants of a gene (counts) were combined into a single value and normalized denoted as rpkms (number of mapped reads per kilobase transcript per million sequenced reads, (Mortazavi et al., 2008. Nature methods 5:621)). The splice-site analysis was performed by mapping the paired-end RNASeq reads to RefSeq human transcripts using the alignment software GSNAP with default parameters and the option ‘sam-multiple-primaries’ in order to account for reads that were mapped multiple times to different splice variants. The number of reads spanning splice-sites was determined by applying the samtools mpileup software with default parameters for each transcript. Reads having an alignment start or end exactly on the splice-site were excluded from the analysis (Wu et al., 2005, Bioinformatics 21:1859; Wu et al., 2010, Bioinformatics 26:873; Li et al., 2009, Bioinformatics 25:2078). […]

SMN2 FL and SMN2 Δ7 mRNA = experiment: RT-qPCR analysis of SMN2 full length (FL) and Δ7 mRNAs in cultured cells; type: cell-based, human; settings: FIG. 1
Method: Cells are plated at a certain density in an appropriate medium in 96-well flat-bottom plates. The plate is immediately swirled to ensure even distribution of the cells to ensure the formation of an even monolayer of cells and incubated for 6-24 hrs at 37° C. Cells are then treated with serially diluted test compound (e.g., 3.16-fold dilution factor, 0.5% final concentration of DMSO), in duplicate, for desired time under appropriate conditions (e.g., 37° C., 5% CO2, 100% relative humidity). After supernatant removal, cells are lysed (e.g., in Cells-To-Ct lysis buffer, Life Technologies). The levels of RNA of interest, and a reference RNA (e.g., GAPDH mRNA) are quantified (e.g., by using Taqman-based RT-qPCR) by assays designed to detect each mRNA of interest specifically. The forward and reverse primers are used at the appropriate concentration (e.g., 0.1-1 μM), as well as the probe (e.g., 0.1 to 0.3 μM). GAPDH primers are typically at 0.1 μM and the probe at 0.075 μM. RT-qPCR is carried out using an appropriate protocol. One example of such a protocol is the following temperatures for indicated time: Step 1: 48° C. (15 min); Step 2: 95° C. (10 min); Step 3: 95° C. (15 sec); Step 4: 60° C. (1 min); then, repeat Steps 3 and 4 for a total of 40 cycles. Fluorescence is recorded in each cycle at the end of the Step 4 incubation. […] The Ct values for each mRNA are converted to mRNA abundance using actual PCR efficiencies, and may be calculated essentially as described in Liu and Saint (Anal Biochem 302:52). […]
GM03813 (Coriell Institute) and PNN 1-46 fibroblasts (Columbia University) derived from SMA Type I patients were plated at 5,000 cells/well in 200 μL Dulbecco's modified Eagle's medium (DMEM) with GlutaMAX and 10% fetal bovine serum (FBS) (Life Technologies, Inc.) in 96-well plates, and incubated for 6 hours in a cell culture incubator (37° C., 5% CO2, 100% relative humidity). […] The mRNA levels of SMN2 FL, SMN2 Δ7 and GAPDH were quantified using Taqman-based RT-qPCR and SMN2-specific primers and probes in Table 5 (purchased from Life Technologies, Inc.). […]

[2] = 500 nM vs DMSO control, FIG. 2C
[3] = SMA Type I patient fibroblasts, treatment for 24 hours

## CCN1CCC(c2cc(C)c3nc(-c4cc5c(C)nc(C)cn5n4)cc(=O)n3c2)CC1 [Compound 702]
[1]; [2]
  effect on STRN3 transcript variants: a switch between variants NM_014574 and NM_001083893
  genes to which the splice junctions with p>300 belong: SMN2, PDXDC1, STRN3, and pseudogene PDXDC2P
  splice junctions with p>300 (p=Δ×Log2 FC): 20 splice junctions
  splice junctions with p>300 that belong to PDXDC1, all similarly affected: 15 splice junctions
[1]; 500 nM vs DMSO control, out of about 300,000 splice junctions analyzed, FIG. 2C
  splice junctions with p>100 (p=Δ×Log2 FC): 114 splice junctions
[1]; PNN 1-46, 500 nM, 24 hours, splice junctions with p>100, * = pseudogene
  up spl j gene (gene with upregulated splice junctions): STRN3 and APLP2 and TEX21P* and RCC1 and FOXM1 and VPS29
SMN2 FL and SMN2 Δ7 mRNA; SMA Type I fibroblast cells (PNN 1-46), 500 nM, 24 hours
  splicing alteration of SMN2 transcripts: complete splicing alteration of all SMN2 transcripts
SMN2 FL and SMN2 Δ7 mRNA; [3]
  expression of exon 7 lacking (Δ7) mRNA: dose dependent expression
  expression of full length (FL) mRNA: dose dependent expression
